Laboratory results reported in patent US8741350B2, “Taste masked pharmaceutical composition” (Boehringer Ingelheim Vetmedica GmbH, priority 2011, dated 2014).
Like-named read-outs stand apart in the source and are kept apart here.

Assays:
[1] = background statement; cited from earlier work
[2] = Water solubility (statement); type: physicochemical
[3] = Lipophilicity profile (statement); type: physicochemical; conditions: neutral versus acidic pH

water solubility in words [2] | SMILES | water solubility in words [1] | lipophilicity profile in words [3]
 | COc1ccc(CCN2CCC[C@H](CN3CCc4cc(OC)c(OC)cc4CC3=O)C2)cc1OC [Cilobradine] | highly water-soluble | 
water soluble | CC#CCn1c(N2CCC[C@@H](N)C2)nc2c1c(=O)n(Cc1ncccc1C#N)c(=O)n2C.Cl [1-[(3-cyano-pyridin-2-yl)methyl]-3-methyl-7-(2-butyn-1-yl)-8-[3-(R)-amino-piperidin-1-yl]-xanthine monohydrochloride] |  | 
 | COc1ccc(CCN2CCC[C@H](CN3CCc4cc(OC)c(OC)cc4CC3=O)C2)cc1OC.Cl [cilobradine hydrochloride] | highly water-soluble | slightly more lipophilic at neutral pH values
